Consider 14 compounds from patent US20220378791A1, “JAK1 INHIBITORS FOR THE TREATMENT OF MYELODYSPLASTIC SYNDROMES” (Incyte Corporation, priority 2014, published 2022).

Experiment [1] deals with T1, human JAK2 (a.a. 828-1132) (Homo sapiens, UniProt O60674).
T1 construct: JAK2 (a.a. 828-1132); His tag (N); made in house; host or cells: insect cells (baculovirus)
Briefly: In vitro JAK kinase assay (HTRF), JAK2. The experiment is classed as biochemical. To be noted: IC50 ratio, selectivity for JAK1 over JAK2, 1 mM ATP. On the procedure: (§1) Compounds herein were tested for inhibitory activity of JAK targets according to the following in vitro assay described in Park et al., Analytical Biochemistry 1999, 269, 94-104. The catalytic domains of human JAK1 (a.a. 837-1142), JAK2 (a.a. 828-1132) and JAK3 (a.a. 781-1124) with an N-terminal His tag were expressed using baculovirus in insect cells and purified. The catalytic activity of JAK1, JAK2 or JAK3 was assayed by measuring the phosphorylation of a biotinylated peptide. The phosphorylated peptide was detected by homogenous time resolved fluorescence (HTRF). […] Reactions were carried out at room temperature for 1 hour and then stopped with 20 μL 45 mM EDTA, 300 nM SA-APC, 6 nM Eu-Py20 in assay buffer (Perkin Elmer, Boston, Mass.). Binding to the Europium labeled antibody took place for 40 minutes and HTRF signal was measured on a Fusion plate reader (Perkin Elmer, Boston, Mass.). See Table 2 for data for compounds of the examples as tested by the assay of Example A at 1 mM ATP.

Experiment [2] addresses T2, human JAK1 (a.a. 837-1142) (Homo sapiens, UniProt P23458).
T2 construct: human JAK1 (a.a. 837-1142); His tag (N); made in house; host or cells: insect cells (baculovirus)
Briefly: In vitro JAK kinase assay (HTRF), JAK1. In kind it is biochemical. To be noted: 1 mM ATP. On the procedure:
as §1, with “Mass.).” for “Mass.). See Table 2 for data for compounds of the examples as tested by the assay of Example A at 1 mM ATP.”

Experiment [3] relates to MDS patients. To be noted: 83 patients enrolled, 51 completed 12 weeks of therapy; cited from earlier work.
Experiment [4] relates to MDS patients. The note with it: study of 14 MDS patients; cited from earlier work.

T1 sequence (O60674 828-1132): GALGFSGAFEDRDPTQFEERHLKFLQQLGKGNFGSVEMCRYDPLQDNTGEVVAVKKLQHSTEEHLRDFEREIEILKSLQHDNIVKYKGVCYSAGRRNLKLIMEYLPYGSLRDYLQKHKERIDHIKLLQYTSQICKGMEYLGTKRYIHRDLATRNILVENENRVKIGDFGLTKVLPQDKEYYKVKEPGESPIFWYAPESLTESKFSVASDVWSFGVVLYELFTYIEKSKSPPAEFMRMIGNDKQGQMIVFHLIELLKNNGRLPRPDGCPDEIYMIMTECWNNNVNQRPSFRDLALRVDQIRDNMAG
T2 sequence (P23458 849-1154): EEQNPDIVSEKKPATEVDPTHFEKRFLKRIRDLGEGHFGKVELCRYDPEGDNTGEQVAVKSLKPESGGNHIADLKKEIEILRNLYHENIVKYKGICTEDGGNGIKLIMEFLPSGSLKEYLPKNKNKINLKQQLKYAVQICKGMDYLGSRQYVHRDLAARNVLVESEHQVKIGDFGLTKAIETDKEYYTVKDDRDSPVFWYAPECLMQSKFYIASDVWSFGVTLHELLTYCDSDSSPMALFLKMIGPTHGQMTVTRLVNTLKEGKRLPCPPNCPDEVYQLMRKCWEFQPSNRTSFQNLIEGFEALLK

Turning to `C[C@H](O)CNCc1cc(OC2CCN([C@H]3C[C@](CC#N)(n4cc(-c5ncnc6[nH]ccc56)cn4)C3)CC2)nc(C(F)(F)F)c1` [Example 23, {trans-3-(4-{[4-({[(2S)-2-hydroxypropyl]amino}methyl)-6-(trifluoromethyl)pyridin-2-yl]oxy}piperidin-1-yl)-1-[4-(7H-pyrrolo[2,3-d]pyrimidin-4-yl)-1H-pyrazol-1-yl]cyclobutyl}acetonitrile], the JAK2/JAK1 in experiment [1] is reported as above 10. Besides, the IC50 in experiment [2] was below 10 nM.

As for `CC(C)(O)c1cc(O[C@H]2CC[C@@H](N3CC(CC#N)(n4cc(-c5ncnc6[nH]ccc56)cn4)C3)CC2)nc(C(F)(F)F)c1` [Example 18, {1-(cis-4-{[4-(1-hydroxy-1-methylethyl)-6-(trifluoromethyl)pyridin-2-yl]oxy}cyclohexyl)-3-[4-(7H-pyrrolo[2,3-d]pyrimidin-4-yl)-1H-pyrazol-1-yl]azetidin-3-yl}acetonitrile], in experiment [1], the JAK2/JAK1 was above 10. The compound also displayed an IC50 in experiment [2] below 10 nM.

In the case of `O=C1CCC(N2C(=O)c3ccccc3C2=O)C(=O)N1` (stereo not shown) [thalidomide], in the experiment with MDS patients [3], the “patients showed hematologic improvement” value was 16 patients and the “previously transfusion-dependent patients becoming transfusion independent” value is listed as 10 patients.

Consider `N#CCC1(n2cc(-c3ncnc4[nH]ccc34)cn2)CN([C@H]2CC[C@@H](Oc3cc(CN4CC[C@@H](O)C4)cc(C(F)(F)F)n3)CC2)C1` [Example 19, {1-(cis-4-{[4-{[(3R)-3-hydroxypyrrolidin-1-yl]methyl}-6-(trifluoromethyl)pyridin-2-yl]oxy}cyclohexyl)-3-[4-(7H-pyrrolo[2,3-d]pyrimidin-4-yl)-1H-pyrazol-1-yl]azetidin-3-yl}acetonitrile], for which the JAK2/JAK1 in experiment [1] is reported as above 10. Further, the IC50 in experiment [2] is below 10 nM.

Turning to `N#CC[C@]1(n2cc(-c3ncnc4[nH]ccc34)cn2)C[C@H](N2CCC(Oc3cc(CCO)cc(C(F)(F)F)n3)CC2)C1` [Example 24, {trans-3-(4-{[4-(2-hydroxyethyl)-6-(trifluoromethyl)pyridin-2-yl]oxy}piperidin-1-yl)-1-[4-(7H-pyrrolo[2,3-d]pyrimidin-4-yl)-1H-pyrazol-1-yl]cyclobutyl}acetonitrile], the JAK2/JAK1 in experiment [1] is listed as above 10. The same compound had an IC50 in experiment [2] below 10 nM.

Regarding `N#CCC1(n2cc(-c3ncnc4[nH]ccc34)cn2)CN([C@H]2CC[C@@H](Oc3cc(CCO)nc(C(F)(F)F)n3)CC2)C1` [Example 16, {1-(cis-4-{[6-(2-hydroxyethyl)-2-(trifluoromethyl)pyrimidin-4-yl]oxy}cyclohexyl)-3-[4-(7H-pyrrolo[2,3-d]pyrimidin-4-yl)-1H-pyrazol-1-yl]azetidin-3-yl}acetonitrile], the JAK2/JAK1 in experiment [1] was above 10. Besides, the IC50 in experiment [2] is below 10 nM.

Take `N#CC[C@]1(n2cc(-c3ncnc4[nH]ccc34)cn2)C[C@H](N2CCC(Oc3cc(CN4CCC[C@H]4CO)cc(C(F)(F)F)n3)CC2)C1` [Example 10, {trans-3-(4-{[4-{[(2S)-2-(hydroxymethyl)pyrrolidin-1-yl]methyl}-6-(trifluoromethyl)pyridin-2-yl]oxy}piperidin-1-yl)-1-[4-(7H-pyrrolo[2,3-d]pyrimidin-4-yl)-1H-pyrazol-1-yl]cyclobutyl}acetonitrile]: the JAK2/JAK1 in experiment [1] is above 10. The same compound displayed an IC50 in experiment [2] below 10 nM.

As for `N#CC[C@]1(n2cc(-c3ncnc4[nH]ccc34)cn2)C[C@H](N2CCN(C(=O)c3ccnc(C(F)(F)F)n3)CC2)C1` [Example 8, [trans-1-[4-(7H-pyrrolo[2,3-d]pyrimidin-4-yl)-1H-pyrazol-1-yl]-3-(4-{[2-(trifluoromethyl)pyrimidin-4-yl]carbonyl}piperazin-1-yl)cyclobutyl]acetonitrile], the JAK2/JAK1 in experiment [1] is recorded as above 10. The same compound had an IC50 in experiment [2] below 10 nM.

In the case of `N#CCC(C1CCN(c2nc3cccnc3o2)C1)n1cc(-c2ncnc3[nH]ccc23)cn1` (single isomer, unassigned) [Example 2, 3-(1-[1,3]oxazolo[5,4-b]pyridin-2-ylpyrrolidin-3-yl)-3-[4-(7H-pyrrolo[2,3-d]pyrimidin-4-yl)-1H-pyrazol-1-yl]propanenitrile], the JAK2/JAK1 in experiment [1] was above 10. This compound also registered an IC50 in experiment [2] below 10 nM.

Turning to `N#CCC1(n2cc(-c3ncnc4[nH]ccc34)cn2)CN([C@H]2CC[C@@H](Oc3cc(CN4CC[C@H](O)C4)cc(C(F)(F)F)n3)CC2)C1` [Example 20, {1-(cis-4-{[4-{[(3S)-3-hydroxypyrrolidin-1-yl]methyl}-6-(trifluoromethyl)pyridin-2-yl]oxy}cyclohexyl)-3-[4-(7H-pyrrolo[2,3-d]pyrimidin-4-yl)-1H-pyrazol-1-yl]azetidin-3-yl}acetonitrile], the JAK2/JAK1 in experiment [1] is recorded as above 10. Besides, the IC50 in experiment [2] was below 10 nM.

Consider `C[C@@H](CO)NCc1cc(OC2CCN([C@H]3C[C@](CC#N)(n4cc(-c5ncnc6[nH]ccc56)cn4)C3)CC2)nc(C(F)(F)F)c1` [Example 21, {trans-3-(4-{[4-({[(1S)-2-hydroxy-1-methylethyl]amino}methyl)-6-(trifluoromethyl)pyridin-2-yl]oxy}piperidin-1-yl)-1-[4-(7H-pyrrolo[2,3-d]pyrimidin-4-yl)-1H-pyrazol-1-yl]cyclobutyl}acetonitrile], for which the JAK2/JAK1 in experiment [1] is listed as above 10. In experiment [2], this compound showed an IC50 below 10 nM.

As for etanercept, in the experiment with MDS patients [4], the erythroid hematologic improvement is recorded as 25 % of patients; the “improvement in platelet counts and ANC” value was 12.5 % of evaluable patients.

`N#CCC1(n2cc(-c3ncnc4[nH]ccc34)cn2)CN(C2CCN(C(=O)c3ccnc(C(F)(F)F)c3F)CC2)C1` [Example 5, {1-{1-[3-Fluoro-2-(trifluoromethyl)isonicotinoyl]piperidin-4-yl}-3-[4-(7H-pyrrolo[2,3-d]pyrimidin-4-yl)-1H-pyrazol-1-yl]azetidin-3-yl}acetonitrile]: the JAK2/JAK1 in experiment [1] is recorded as above 10. For the same compound, the concentration for half-maximal inhibition (IC50) in experiment [2] is below 10 nM.

For the compound `C[C@@H](O)CNCc1cc(OC2CCN([C@H]3C[C@](CC#N)(n4cc(-c5ncnc6[nH]ccc56)cn4)C3)CC2)nc(C(F)(F)F)c1` [Example 22, {trans-3-(4-{[4-({[(2R)-2-hydroxypropyl]amino}methyl)-6-(trifluoromethyl)pyridin-2-yl]oxy}piperidin-1-yl)-1-[4-(7H-pyrrolo[2,3-d]pyrimidin-4-yl)-1H-pyrazol-1-yl]cyclobutyl}acetonitrile], the JAK2/JAK1 in experiment [1] is given as above 10. For the same compound, the IC50 in experiment [2] is below 10 nM.

The term IC50 denotes the concentration that inhibits the measured activity by half. Read a low IC50 as higher potency.
